Data taken from PubChem BioAssay (NCI).
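Exposure lasted 48 hours, with cells grown in 96-well plates and compounds tested at five concentrations. Abbreviation: GI50, concentration required for 50% inhibition of growth. Definition used: TGI = concentration required for complete inhibition of growth.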

Columns and labels:
Test in all cases: NCI-60 cell line screen, 48 h
[1] = tested on: HCC-2998 colon
[2] = tested on: NCI-H23 lung
[3] = tested on: COLO 205 colon
[4] = tested on: KM12 colon
[5] = tested on: MOLT-4 leukemia
[6] = tested on: SK-MEL-2 melanoma
[7] = tested on: NCI/ADR-RES ovarian
[8] = tested on: CCRF-CEM leukemia
[9] = tested on: MCF7 breast
[10] = tested on: OVCAR-3 ovarian
[11] = tested on: SNB-19 CNS
[12] = tested on: K-562 leukemia
[13] = tested on: OVCAR-5 ovarian
[14] = tested on: HT29 colon
[15] = tested on: A549 NSCLC
[16] = tested on: BT-549 breast
[17] = tested on: UACC-257 melanoma
[18] = tested on: HOP-92 NSCLC
[19] = tested on: RPMI-8226 leukemia
[20] = tested on: NCI-H522 lung
[21] = tested on: M14 melanoma
[22] = tested on: IGROV1 ovarian
[23] = tested on: TK-10 renal
[24] = tested on: HS 578T breast
[25] = tested on: RXF 393 renal
[26] = tested on: ACHN renal
[27] = tested on: DU-145 prostate
[28] = tested on: SW-620 colon
[29] = tested on: MDA-MB-231 breast
[30] = tested on: UO-31 renal
[31] = tested on: MALME-3M melanoma
[32] = tested on: HL-60(TB) leukemia
[33] = tested on: SNB-75 CNS
[34] = tested on: OVCAR-4 ovarian
[35] = tested on: HOP-62 NSCLC
[36] = tested on: T-47D breast
[37] = tested on: SK-MEL-28 melanoma
[38] = tested on: NCI-H226 lung
[39] = tested on: 786-0 renal
[40] = tested on: SF-295 CNS
[41] = tested on: SK-OV-3 ovarian
[42] = tested on: U251 CNS
[43] = tested on: UACC-62 melanoma
[44] = tested on: PC-3 prostate
[45] = tested on: HCT-116 colon
[46] = tested on: LOX IMVI melanoma
[47] = tested on: EKVX NSCLC
[48] = tested on: OVCAR-8 ovarian
[49] = tested on: SN12C renal
[50] = tested on: CAKI-1 renal
[51] = tested on: MDA-MB-435
[52] = tested on: SF-539 CNS
[53] = tested on: HCT-15 colon
[54] = tested on: SK-MEL-5 melanoma
[55] = tested on: NCI-H460 lung
[56] = tested on: SR leukemia
[57] = tested on: SF-268 CNS
[58] = tested on: A498 renal

COC1=CC(c2ccc[nH]2)=N/C1=C\c1[nH]c(C)c(C(=O)OCc2ccccc2)c1C
GI50 [1]: 87 nM
TGI [1]: 1710 nM
GI50 [2]: 141 nM
TGI [2]: 1740 nM
GI50 [3]: 165 nM
TGI [3]: 1480 nM
GI50 [4]: 52.5 nM
TGI [4]: 1520 nM
GI50 [5]: 51.3 nM
TGI [5]: 4610 nM
GI50 [6]: 44.5 nM
TGI [6]: 196 nM
GI50 [7]: 71.4 nM
TGI [7]: 1360 nM
GI50 [8]: 40.4 nM
TGI [8]: > 28300 nM
GI50 [9]: 89.4 nM
TGI [9]: 836 nM
GI50 [10]: 62.1 nM
TGI [10]: 645 nM
GI50 [11]: 606 nM
TGI [11]: 29200 nM
GI50 [12]: 85.5 nM
TGI [12]: 1460 nM
GI50 [13]: 211 nM
TGI [13]: 1990 nM
GI50 [14]: 35.9 nM
TGI [14]: 1270 nM
GI50 [15]: 82.6 nM
TGI [15]: 4680 nM
GI50 [16]: 253 nM
TGI [16]: 3460 nM
GI50 [17]: 316 nM
TGI [17]: 1830 nM
GI50 [18]: 67.1 nM
TGI [18]: 431 nM
GI50 [19]: 116 nM
TGI [19]: 1800 nM
GI50 [20]: 96.8 nM
TGI [20]: 1150 nM
GI50 [21]: 44.8 nM
TGI [21]: 817 nM
GI50 [22]: 286 nM
TGI [22]: 9000 nM
GI50 [23]: 85.4 nM
TGI [23]: 1910 nM
GI50 [24]: 80.4 nM
TGI [24]: 662 nM
GI50 [25]: 116 nM
TGI [25]: 1410 nM
GI50 [26]: 81 nM
TGI [26]: 1150 nM
GI50 [27]: 91.7 nM
TGI [27]: 1920 nM
GI50 [28]: 34.6 nM
TGI [28]: 1210 nM
GI50 [29]: 37.9 nM
TGI [29]: 325 nM
GI50 [30]: 144 nM
TGI [30]: 336 nM
GI50 [31]: 495 nM
TGI [31]: 2100 nM
GI50 [32]: 328 nM
TGI [32]: 20200 nM
GI50 [33]: 127 nM
TGI [33]: 632 nM
GI50 [34]: 75.6 nM
TGI [34]: 5710 nM
GI50 [35]: 314 nM
TGI [35]: 2770 nM
GI50 [36]: 252 nM
TGI [36]: 1600 nM
GI50 [37]: 353 nM
TGI [37]: 1710 nM
GI50 [38]: 132 nM
TGI [38]: 1520 nM
GI50 [39]: 66.6 nM
TGI [39]: 1080 nM
GI50 [40]: 170 nM
TGI [40]: 827 nM
GI50 [41]: 824 nM
TGI [41]: 4860 nM
GI50 [42]: 61.6 nM
TGI [42]: 1260 nM
GI50 [43]: 57.9 nM
TGI [43]: 193 nM
GI50 [44]: 112 nM
TGI [44]: 20600 nM
GI50 [45]: 32.1 nM
TGI [45]: 1160 nM
GI50 [46]: 18.9 nM
TGI [46]: 42 nM
GI50 [47]: 206 nM
TGI [47]: 3640 nM
GI50 [48]: 110 nM
TGI [48]: 1750 nM
GI50 [49]: 84.9 nM
TGI [49]: 1880 nM
GI50 [50]: 48.3 nM
TGI [50]: 1760 nM
GI50 [51]: 55.7 nM
TGI [51]: 1310 nM
GI50 [52]: 111 nM
TGI [52]: 1540 nM
GI50 [53]: 33.3 nM
TGI [53]: 1090 nM
GI50 [54]: 47.6 nM
TGI [54]: 177 nM
GI50 [55]: 47.6 nM
TGI [55]: 1200 nM
GI50 [56]: 40.5 nM
TGI [56]: 885 nM
GI50 [57]: 110 nM
TGI [57]: 1940 nM
GI50 [58]: 169 nM
TGI [58]: 1020 nM
